From patent publication US20250242064A1, “CXCR4-TARGETING COMPOUNDS, AND METHODS OF MAKING AND USING THE SAME” (PROVINCIAL HEALTH SERVICES AUTHORITY, priority 2022, published 2025)
Where a SMILES comes first, the peptide text is derived from it. Bridges are numbered along the chain shown (N, C = ends). [ ]: non-standard residue; d: D form. The star is where a group is joined. X3 = O=C(O)CN1CCN(CC(=O)O)CCN(CC(=O)N[C@@H](CS(=O)(=O)O)C(=O)N[C@@H](CCCCNC(=O)CCCc2ccc(Br)cc2)C(=O)*)CCN(CC(=O)O)CC1; 2Nal = N[C@@H](Cc1ccc2ccccc2c1)C(=O)O; Lys(iPr) = CC(C)NCCCC[C@H](N)C(=O)O

Test: in vivo
Design: species or system mice
Settings: male, mouse, iv, total radioactivity
Outline: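 Male NRG mice bearing subcutaneous Z138 mantle cell lymphoma xenografts (5×10^6 cells, grown to 200-300 mm^3) injected intravenously under isoflurane with 68Ga-labelled tracers. Harvested tissues weighed and gamma-counted; uptake expressed as % ID/g.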

[1] = NOD.Cg-Rag1tm1Mom Il2rgtm1Wjl/SzJ (NRG), Biodistribution: Adrenals
[2] = NOD.Cg-Rag1tm1Mom Il2rgtm1Wjl/SzJ (NRG), Biodistribution: Blood
[3] = NOD.Cg-Rag1tm1Mom Il2rgtm1Wjl/SzJ (NRG), Biodistribution: Bone
[4] = NOD.Cg-Rag1tm1Mom Il2rgtm1Wjl/SzJ (NRG), Biodistribution: Brain
[5] = NOD.Cg-Rag1tm1Mom Il2rgtm1Wjl/SzJ (NRG), Biodistribution: Heart
[6] = NOD.Cg-Rag1tm1Mom Il2rgtm1Wjl/SzJ (NRG), Biodistribution: Kidneys
[7] = NOD.Cg-Rag1tm1Mom Il2rgtm1Wjl/SzJ (NRG), Biodistribution: Liver
[8] = NOD.Cg-Rag1tm1Mom Il2rgtm1Wjl/SzJ (NRG), Biodistribution: Lungs
[9] = NOD.Cg-Rag1tm1Mom Il2rgtm1Wjl/SzJ (NRG), Biodistribution: Muscle
[10] = NOD.Cg-Rag1tm1Mom Il2rgtm1Wjl/SzJ (NRG), Biodistribution: Pancreas
[11] = NOD.Cg-Rag1tm1Mom Il2rgtm1Wjl/SzJ (NRG), Biodistribution: Small Intestine
[12] = NOD.Cg-Rag1tm1Mom Il2rgtm1Wjl/SzJ (NRG), Biodistribution: Spleen
[13] = NOD.Cg-Rag1tm1Mom Il2rgtm1Wjl/SzJ (NRG), Biodistribution: Stomach
[14] = NOD.Cg-Rag1tm1Mom Il2rgtm1Wjl/SzJ (NRG), Biodistribution: Testes
[15] = NOD.Cg-Rag1tm1Mom Il2rgtm1Wjl/SzJ (NRG), Biodistribution: Z138 Tumor
[16] = NOD.Cg-Rag1tm1Mom Il2rgtm1Wjl/SzJ (NRG), Ratio Tumor-to-Blood
[17] = NOD.Cg-Rag1tm1Mom Il2rgtm1Wjl/SzJ (NRG), Ratio Tumor-to-Bone
[18] = NOD.Cg-Rag1tm1Mom Il2rgtm1Wjl/SzJ (NRG), Ratio Tumor-to-Kidney
[19] = NOD.Cg-Rag1tm1Mom Il2rgtm1Wjl/SzJ (NRG), Ratio Tumor-to-Muscle
[20] = NOD.Cg-Rag1tm1Mom Il2rgtm1Wjl/SzJ (NRG), Ratio Tumor-to-Pancreas
[21] = NOD.Cg-Rag1tm1Momll2rgtm1Wjl/SzJ (NRG), Biodistribution: Blood
[22] = NOD.Cg-Rag1tm1Momll2rgtm1Wjl/SzJ (NRG), Biodistribution: Stomach
[23] = NOD.Cg-Rag1tm1Momll2rgtm1Wjl/SzJ (NRG), Biodistribution: Testes
[24] = NOD.Cg-Rag1tm1Momll2rgtm1Wjl/SzJ (NRG), Ratio Tumor-to-Bone
[25] = NOD.Cg-Rag1tm1Momll2rgtm1Wjl/SzJ (NRG), Ratio Tumor-to-Kidney
[26] = NOD.Cg-Rag1tm1Momll2rgtm1Wjl/SzJ (NRG), Ratio Tumor-to-Muscle
[27] = NOD.Cg-Rag1tm1Momll2rgtm1Wjl/SzJ (NRG), Ratio Tumor-to-Pancreas

tissue uptake at 1 h [1]: 2.44 %ID/g
tissue uptake at 3 h [1]: 2.29 %ID/g
tissue uptake at 24 h [1]: 1.1 %ID/g
tissue uptake at 72 h [1]: 0.81 %ID/g
tissue uptake at 120 h [1]: 1.24 %ID/g
tissue uptake at 1 h [2]: 14.1 %ID/g
tissue uptake at 3 h [2]: 11.8 %ID/g
tissue uptake at 1 h [3]: 1.02 %ID/g
tissue uptake at 3 h [3]: 0.78 %ID/g
tissue uptake at 24 h [3]: 0.29 %ID/g
tissue uptake at 72 h [3]: 0.26 %ID/g
tissue uptake at 120 h [3]: 0.3 %ID/g
tissue uptake at 1 h [4]: 0.22 %ID/g
tissue uptake at 3 h [4]: 0.2 %ID/g
tissue uptake at 24 h [4]: 0.06 %ID/g
tissue uptake at 72 h [4]: 0.03 %ID/g
tissue uptake at 120 h [4]: 0.02 %ID/g
tissue uptake at 1 h [5]: 3.05 %ID/g
tissue uptake at 3 h [5]: 3.01 %ID/g
tissue uptake at 24 h [5]: 0.76 %ID/g
tissue uptake at 72 h [5]: 0.25 %ID/g
tissue uptake at 120 h [5]: 0.18 %ID/g
tissue uptake at 1 h [6]: 4.5 %ID/g
tissue uptake at 3 h [6]: 3.98 %ID/g
tissue uptake at 24 h [6]: 1.53 %ID/g
tissue uptake at 72 h [6]: 0.4 %ID/g
tissue uptake at 120 h [6]: 0.33 %ID/g
tissue uptake at 1 h [7]: 2.8 %ID/g
tissue uptake at 3 h [7]: 3.16 %ID/g
tissue uptake at 24 h [7]: 0.84 %ID/g
tissue uptake at 72 h [7]: 0.44 %ID/g
tissue uptake at 120 h [7]: 0.19 %ID/g
tissue uptake at 1 h [8]: 8.78 %ID/g
tissue uptake at 3 h [8]: 6.6 %ID/g
tissue uptake at 24 h [8]: 1.9 %ID/g
tissue uptake at 72 h [8]: 0.68 %ID/g
tissue uptake at 120 h [8]: 0.72 %ID/g
tissue uptake at 1 h [9]: 1.13 %ID/g
tissue uptake at 3 h [9]: 0.93 %ID/g
tissue uptake at 24 h [9]: 0.27 %ID/g
tissue uptake at 72 h [9]: 0.15 %ID/g
tissue uptake at 120 h [9]: 0.08 %ID/g
tissue uptake at 1 h [10]: 1.59 %ID/g
tissue uptake at 3 h [10]: 1.25 %ID/g
tissue uptake at 24 h [10]: 1.38 %ID/g
tissue uptake at 72 h [10]: 0.12 %ID/g
tissue uptake at 120 h [10]: 0.23 %ID/g
tissue uptake at 1 h [11]: 1.16 %ID/g
tissue uptake at 3 h [11]: 1.02 %ID/g
tissue uptake at 24 h [11]: 0.53 %ID/g
tissue uptake at 72 h [11]: 0.11 %ID/g
tissue uptake at 120 h [11]: 0.08 %ID/g
tissue uptake at 1 h [12]: 1.92 %ID/g
tissue uptake at 3 h [12]: 1.86 %ID/g
tissue uptake at 24 h [12]: 1.12 %ID/g
tissue uptake at 72 h [12]: 0.95 %ID/g
tissue uptake at 120 h [12]: 0.77 %ID/g
tissue uptake at 1 h [13]: 0.52 %ID/g
tissue uptake at 3 h [13]: 0.71 %ID/g
tissue uptake at 1 h [14]: 1.78 %ID/g
tissue uptake at 3 h [14]: 2.81 %ID/g
tissue uptake at 1 h [15]: 5.94 %ID/g
tissue uptake at 3 h [15]: 15.4 %ID/g
tissue uptake at 24 h [15]: 27.4 %ID/g
tissue uptake at 72 h [15]: 23.6 %ID/g
tissue uptake at 120 h [15]: 23.6 %ID/g
tissue to tissue ratio at 1 h [16]: 0.42
tissue to tissue ratio at 3 h [16]: 1.3
tissue to tissue ratio at 24 h [16]: 9.65
tissue to tissue ratio at 72 h [16]: 53.9
tissue to tissue ratio at 120 h [16]: 71.5
tissue to tissue ratio at 1 h [17]: 3.63
tissue to tissue ratio at 3 h [17]: 10.5
tissue to tissue ratio at 1 h [18]: 1.32
tissue to tissue ratio at 3 h [18]: 3.93
tissue to tissue ratio at 1 h [19]: 5.29
tissue to tissue ratio at 3 h [19]: 16.7
tissue to tissue ratio at 72 h [19]: 234
tissue to tissue ratio at 1 h [20]: 3.77
tissue to tissue ratio at 3 h [20]: 12.6
tissue uptake at 24 h [21]: 2.84 %ID/g
tissue uptake at 72 h [21]: 0.45 %ID/g
tissue uptake at 120 h [21]: 0.36 %ID/g
tissue uptake at 24 h [22]: 0.41 %ID/g
tissue uptake at 72 h [22]: 0.13 %ID/g
tissue uptake at 120 h [22]: 0.07 %ID/g
tissue uptake at 24 h [23]: 1.01 %ID/g
tissue uptake at 72 h [23]: 0.65 %ID/g
tissue uptake at 120 h [23]: 0.56 %ID/g
tissue to tissue ratio at 24 h [24]: 45.3
tissue to tissue ratio at 72 h [24]: 44.3
tissue to tissue ratio at 120 h [24]: 27
tissue to tissue ratio at 24 h [25]: 18
tissue to tissue ratio at 72 h [25]: 60.3
tissue to tissue ratio at 120 h [25]: 75.5
tissue to tissue ratio at 24 h [26]: 102
tissue to tissue ratio at 120 h [26]: 357
tissue to tissue ratio at 24 h [27]: 70.9
tissue to tissue ratio at 72 h [27]: 206
tissue to tissue ratio at 120 h [27]: 257
SMILES: CC(C)NCCCC[C@H](NC(=O)[C@H]1CCC(=O)N[C@@H](CCCCNC(=O)[C@H](CCCCNC(=O)CCCc2ccc(Br)cc2)NC(=O)[C@H](CS(=O)(=O)O)NC(=O)CN2CCN(CC(=O)O)CCN(CC(=O)O)CCN(CC(=O)O)CC2)C(=O)N[C@@H](Cc2ccc(O)cc2)C(=O)N[C@@H](CCCCNC(C)C)C(=O)N[C@H](CCCNC(=N)N)C(=O)N[C@@H](Cc2ccc3ccccc3c2)C(=O)N[C@H](C)C(=O)N1)C(N)=O [[^177Lu]Lu-BL34L20, metal not drawn] (K(X3)Y[Lys(iPr)][dR][2Nal][dA][dE][Lys(iPr)]-NH2; lactam N-7)
